Test results: EPA's ToxValDB 9.5 (doi:10.2903/j.efsa.2005.28r)
Converted amounts (≈) assume the structure as drawn.

Assays:
Pimephales promelas = conditions: chronic/long-term; duration: 35 days; growth
Apis mellifera = conditions: acute, mortality
Oncorhynchus mykiss = conditions: acute; duration: 96 hours; mortality
Daphnia magna = conditions: chronic/long-term; duration: 21 days; reproduction
Colinus virginianus = conditions: acute, oral, mortality
Tagia sp. = conditions: acute; duration: 14 days; mortality
Aphidius rhopalosiphi = conditions: acute; duration: 7 days; mortality
Bird = conditions: reproductive; oral; feed
Bibionidae = conditions: chronic/long-term, duration: 28 days

Question: For CCCN(CCC)c1c([N+](=O)[O-])cc(C(F)(F)F)cc1[N+](=O)[O-] [Trifluralin], which NOEC (Pimephales promelas) is on record?
Answer: 0.0003 mg/L

Question: And the LD50 (Apis mellifera; duration: 48 hours, dermal)?
Answer: > 100 µg/piece

Question: What about the LD50 (Apis mellifera; oral, unspecified) of the same compound?
Answer: > 100 µg/piece

Question: And the LD50 (Rattus norvegicus; acute, oral, mortality)?
Answer: > 5000 mg/kg

Question: And the LOAEL (Rattus norvegicus; chronic, duration: 2 years, histopathology: neoplastic)?
Answer: 30 mg/kg-day

Question: What about the NOAEL (Rattus norvegicus; reproduction developmental) of the same compound?
Answer: 148 mg/kg-day

Question: What about the NOAEL (Rattus norvegicus; subchronic, duration: 90 days) of the same compound?
Answer: 2.6 mg/kg-day

Question: And the LC50 (Oncorhynchus mykiss)?
Answer: 0.088 µg/mL (≈ 0.262 µM)

Question: And the NOEC (Daphnia magna)?
Answer: 0.0507 mg/L

Question: What about the LC50 (Colinus virginianus; diet) of the same compound?
Answer: 2970 mg/kg

Question: What about the LD50 (Colinus virginianus) of the same compound?
Answer: > 2250 mg/kg

Question: And the LC50 (Tagia sp.)?
Answer: > 1000 mg/kg

Question: What about the LEL (Aphidius rhopalosiphi) of the same compound?
Answer: 1200 g/ha

Question: And the NOEC (Bird)?
Answer: 1000 mg/kg

Question: What about the NOEC (Bibionidae; development) of the same compound?
Answer: 0.25 mg/L

Question: What about the NOEC (Bibionidae; mortality) of the same compound?
Answer: 810 mg/kg
